Results published in paper PMC4327817 (ACS chemical biology, 2014).
Like-named read-outs stand apart in the source and are kept apart here.

Key:
CBP = CBP (Homo sapiens, UniProt Q92793); assay: C646 titration of CBP acetylation of H3/H4 under kcat conditions; format: biochemical
BxPC3 cells = assay: Histone acetylation in BxPC3 cells after drug treatment; format: cell-based, human; details: for EC50: read-out: apparent EC50 for activation; for Mean fold-change in acetylation: TSA 0.5 μM

CBP, sequence (Q92793 whole entry): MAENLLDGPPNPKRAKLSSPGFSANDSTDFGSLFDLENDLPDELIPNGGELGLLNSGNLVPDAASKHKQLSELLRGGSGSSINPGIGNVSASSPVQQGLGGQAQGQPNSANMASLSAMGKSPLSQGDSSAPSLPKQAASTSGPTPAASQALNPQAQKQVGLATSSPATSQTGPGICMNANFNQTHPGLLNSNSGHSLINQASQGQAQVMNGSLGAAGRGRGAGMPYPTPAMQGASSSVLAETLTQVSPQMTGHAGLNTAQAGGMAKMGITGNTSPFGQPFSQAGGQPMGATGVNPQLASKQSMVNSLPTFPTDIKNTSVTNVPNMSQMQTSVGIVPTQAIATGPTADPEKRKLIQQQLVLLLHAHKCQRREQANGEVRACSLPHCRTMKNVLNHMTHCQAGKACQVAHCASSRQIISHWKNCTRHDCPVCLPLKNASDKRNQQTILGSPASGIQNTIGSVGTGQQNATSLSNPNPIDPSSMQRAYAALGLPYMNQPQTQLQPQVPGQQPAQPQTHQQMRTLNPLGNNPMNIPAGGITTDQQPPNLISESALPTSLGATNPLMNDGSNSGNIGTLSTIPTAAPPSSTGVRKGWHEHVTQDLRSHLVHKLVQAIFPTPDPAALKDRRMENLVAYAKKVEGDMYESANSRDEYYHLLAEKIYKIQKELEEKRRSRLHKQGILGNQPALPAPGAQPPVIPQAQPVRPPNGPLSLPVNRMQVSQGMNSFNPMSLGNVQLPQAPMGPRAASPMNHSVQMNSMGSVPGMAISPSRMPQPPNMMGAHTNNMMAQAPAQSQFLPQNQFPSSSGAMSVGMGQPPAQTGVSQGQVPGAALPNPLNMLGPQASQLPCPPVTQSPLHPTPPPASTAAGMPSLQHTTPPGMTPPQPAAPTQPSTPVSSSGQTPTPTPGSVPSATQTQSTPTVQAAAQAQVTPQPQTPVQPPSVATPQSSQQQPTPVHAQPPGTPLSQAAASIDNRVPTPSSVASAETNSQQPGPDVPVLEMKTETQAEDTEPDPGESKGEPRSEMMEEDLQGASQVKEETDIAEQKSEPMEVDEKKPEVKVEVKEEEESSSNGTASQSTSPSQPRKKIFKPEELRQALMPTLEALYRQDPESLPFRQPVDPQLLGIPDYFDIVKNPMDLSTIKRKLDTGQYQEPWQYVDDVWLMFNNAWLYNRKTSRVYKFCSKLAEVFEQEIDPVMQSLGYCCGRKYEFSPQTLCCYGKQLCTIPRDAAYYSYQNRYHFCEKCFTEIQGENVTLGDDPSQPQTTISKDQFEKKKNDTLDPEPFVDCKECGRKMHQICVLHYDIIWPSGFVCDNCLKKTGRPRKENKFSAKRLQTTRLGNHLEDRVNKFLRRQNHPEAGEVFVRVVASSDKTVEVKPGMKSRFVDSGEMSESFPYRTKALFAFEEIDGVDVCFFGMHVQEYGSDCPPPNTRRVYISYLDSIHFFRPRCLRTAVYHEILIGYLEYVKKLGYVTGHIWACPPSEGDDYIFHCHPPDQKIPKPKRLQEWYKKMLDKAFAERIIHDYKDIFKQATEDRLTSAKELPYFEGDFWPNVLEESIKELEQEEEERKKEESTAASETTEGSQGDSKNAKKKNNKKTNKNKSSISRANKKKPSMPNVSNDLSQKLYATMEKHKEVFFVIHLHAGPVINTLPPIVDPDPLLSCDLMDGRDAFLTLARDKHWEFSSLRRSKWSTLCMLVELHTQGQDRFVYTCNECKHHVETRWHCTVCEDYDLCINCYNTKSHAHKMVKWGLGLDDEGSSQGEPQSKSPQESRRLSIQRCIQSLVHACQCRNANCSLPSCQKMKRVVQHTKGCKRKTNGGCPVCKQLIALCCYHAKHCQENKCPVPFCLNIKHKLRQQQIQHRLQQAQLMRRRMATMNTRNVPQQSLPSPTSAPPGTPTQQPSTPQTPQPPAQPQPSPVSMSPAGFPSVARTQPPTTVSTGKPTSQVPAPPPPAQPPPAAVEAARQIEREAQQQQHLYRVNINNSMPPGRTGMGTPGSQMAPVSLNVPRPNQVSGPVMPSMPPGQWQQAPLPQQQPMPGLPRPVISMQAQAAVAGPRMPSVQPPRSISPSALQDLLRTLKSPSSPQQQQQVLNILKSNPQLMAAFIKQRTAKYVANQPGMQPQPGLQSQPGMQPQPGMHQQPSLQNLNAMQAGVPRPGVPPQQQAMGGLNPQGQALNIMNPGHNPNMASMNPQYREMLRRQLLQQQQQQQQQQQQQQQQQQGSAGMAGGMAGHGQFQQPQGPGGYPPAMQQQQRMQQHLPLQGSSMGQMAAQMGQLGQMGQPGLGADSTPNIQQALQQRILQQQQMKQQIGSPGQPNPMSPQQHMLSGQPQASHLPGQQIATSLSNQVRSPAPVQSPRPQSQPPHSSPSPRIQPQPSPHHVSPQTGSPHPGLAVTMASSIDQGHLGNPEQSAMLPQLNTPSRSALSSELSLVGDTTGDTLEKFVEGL

CC1=NN(c2ccc(C(=O)O)cc2)C(=O)/C1=C\c1ccc(-c2cc(C)c(C)cc2[N+](=O)[O-])o1 [C646]
C646 concentration range inhibiting CBP (CBP; compared with p300): within the nanomolar range | effect of C646 on CBP acetylation activity (CBP; kcat conditions, other sites mainly displayed an inhibitory effect): biphasic dependence for H3K18 | stimulation of acetylation in parental BxPC3 cells (BxPC3 cells; parental cells, compared with p300-depleted cells): ≤ 2.5 fold | EC50 (BxPC3 cells; site H3K18, 4 hours): ~0.4 µM | EC50 (BxPC3 cells; site H3K23, 4 hours): ~0.4 µM | IC50 (BxPC3 cells; read-out: apparent IC50 of inhibition, site H3K18, 4 hours): ~6.8 µM

CC(C)(CCCCCCCCCCC(C)(C)CC(=O)O)CC(=O)O [MEDICA 16, beta, beta’-tetramethylhexadecanedioic acid]
effect of MEDICA 16 pretreatment on the acetylation response to C646 (BxPC3 cells; 5 μM MEDICA 16 for 24 hours prior to […] C646): muted stimulatory response to C646

CC(/C=C/C(=O)NO)=C\[C@@H](C)C(=O)c1ccc(N(C)C)cc1 [TSA]
Mean fold-change in acetylation (BxPC3 cells; site H3K9, 4 hours, after 16 hours of serum starvation): 3.02 fold | Mean fold-change in acetylation (BxPC3 cells; site H3K9, 4 hours, no starvation): 68.56 fold | increase of acetylation relative to C646 (BxPC3 cells; site H3K9, TSA versus C646): 42 fold | Mean fold-change in acetylation (BxPC3 cells; site H3K14, 4 hours, after 16 hours of serum starvation): 1.65 fold | Mean fold-change in acetylation (BxPC3 cells; site H3K14, 4 hours, no starvation): 2.412 fold | Mean fold-change in acetylation (BxPC3 cells; site H3K18, 4 hours, after 16 hours of serum starvation): 1.94 fold | Mean fold-change in acetylation (BxPC3 cells; site H3K23, 4 hours, after 16 hours of serum starvation): 1.78 fold | Mean fold-change in acetylation (BxPC3 cells; site H3K23, 4 hours, no starvation): 2.83 fold
